# Laboratory results: patent US7977481B2, “Pyrimidinyl-thiophene kinase modulators” (SGX Pharmaceuticals, Inc., priority 2005, dated 2011)
# Biological target: T1, MET kinase (Homo sapiens, UniProt P08581)
# T1 construct: expressing the kinase domain of human Met; 6x Histidine tag (cleaved yes); made in house; host or cells: Sf9 insect cells
# Assay: MET Luminescence-Based ATP Depletion Enzyme Assay
# Format: biochemical
# Conditions: 10 μM ATP
# Experimental: MET Luminescence-Based ATP Depletion Enzyme Assay
# Materials: Poly Glu-Tyr (4:1) substrate (Sigma Cat#P-0275), ATP (Sigma Cat#A-3377, FW=551), HEPES buffer, pH 7.5, Bovine serum albumin (BSA) (Roche 92423420), MgCl2, Staurosporine (Streptomyces sp. Sigma Cat#85660-1MG), white Costar 384-well flat-bottom plate (VWR Cat#29444-088). MET kinase (see below), Kinase-Glo™ (Promega Cat#V6712).
# Stock Solutions: 10 mg/ml poly Glu-Tyr in water, stored at −20° C.; 100 mM HEPES buffer, pH 7.5 (5 ml 1M stock+45 ml miliQH2O); 10 mM ATP (5.51 mg/ml in dH2O) stored at −20° C. (diluted 50 μl into total of 10 ml miliQH2O daily=50 μM ATP working stock); 1% BSA (1 g BSA in 100 ml 0.1M HEPES, pH 7.5, stored at −20° C.), 100 mM MgCl2; 200 μM Staurosporine, 2× Kinase-Glo™ reagent (made fresh or stored at −20° C.).
# Standard Assay Setup for 384-well format (20 μl kinase reaction, 40 μl detection reaction): 10 mM MgCl2; 0.3 mg/ml poly Glu-Tyr; 0.1% BSA; 1 μl test compound (in DMSO); 0.4 μg/ml MET kinase; 10 μM ATP; 100 mM HEPES buffer. Positive controls contained DMSO with no test compound. Negative controls contained 10 μM staurosporine. The kinase reactions were initiated at time t=0 by the addition of ATP. Kinase reactions were incubated at 21° C. for 60 min, then 20 μl of Kinase-Glo™ reagent were added to each well to quench the kinase reaction and initiate the luminescence reaction. After a 20 min incubation at 21° C., the luminescence was detected in a plate-reading luminometer.
# The cell pellets produced from half of a 12 L Sf9 insect cell culture expressing the kinase domain of human Met were resuspended in a buffer containing 50 mM Tris-HCl pH 7.7 and 250 mM NaCl, in a volume of approximately 40 ml per 1 L of original culture. One tablet of Roche Complete, EDTA-free protease inhibitor cocktail (Cat#1873580) was added per 1 L of original culture. The suspension was stirred for 1 hour at 4° C. Debris was removed by centrifugation for 30 minutes at 39,800×g at 4° C. The supernatant was decanted into a 500 ml beaker and 10 ml of 50% slurry of Qiagen Ni-NTA Agarose (Cat#30250) that had been pre-equilibrated in 50 mM Tris-HCl pH 7.8, 50 mM NaCl, 10% Glycerol, 10 mM Imidazole, and 10 mM Methionine, were added and stirred for 30 minutes at 4° C. The sample was then poured into a drip column at 4° C. and washed with 10 column volumes of 50 mM Tris-HCl pH 7.8, 500 mM NaCl, 10% Glycerol, 10 mM Imidazole, and 10 mM Methionine. The protein was eluted using a step gradient with two column volumes each of the same buffer containing 50 mM, 200 mM, and 500 mM Imidazole, sequentially. The 6× Histidine tag was cleaved overnight using 40 units of TEV protease (Invitrogen Cat#10127017) per 1 mg of protein while dialyzing in 50 mM Tris-HCl pH 7.8, 500 mM NaCl, 10% Glycerol, 10 mM Imidazole, and 10 mM Methionine at 4° C. The 6× Histidine tag was removed by passing the sample over a Pharmacia 5 ml IMAC column (Cat#17-0409-01) charged with Nickel and equilibrated in 50 mM Tris-HCl pH 7.8, 500 mM NaCl, 10% Glycerol, 10 mM Imidazole, and 10 mM Methionine. The cleaved protein bound to the Nickel column at a low affinity and was eluted with a step gradient. The step gradient was run with 15% and then 80% of the B-side (A-side=50 mM Tris-HCl pH 7.8, 500 mM NaCl, 10% Glycerol, 10 mM Imidazole, and 10 mM Methionine; B-side=50 mM Tris-HCl pH 7.8, 500 mM NaCl, 10% Glycerol, 500 mM Imidazole, and 10 mM Methionine) for 4 column volumes each. The Met protein eluted in the first step (15%), whereas the non-cleaved Met and the cleaved Histidine tag eluted in the 80% fractions. The 15% fractions were pooled after SDS-PAGE gel analysis confirmed the presence of cleaved Met; further purification was done by gel filtration chromatography on an Amersham Biosciences HiLoad 16/60 Superdex 200 prep grade (Cat#17-1069-01) equilibrated in 50 mM Tris-HCl pH 8.5, 150 mM NaCl, 10% Glycerol and 5 mM DTT. […]
# T1 sequence (P08581 1078-1345 limits assumed): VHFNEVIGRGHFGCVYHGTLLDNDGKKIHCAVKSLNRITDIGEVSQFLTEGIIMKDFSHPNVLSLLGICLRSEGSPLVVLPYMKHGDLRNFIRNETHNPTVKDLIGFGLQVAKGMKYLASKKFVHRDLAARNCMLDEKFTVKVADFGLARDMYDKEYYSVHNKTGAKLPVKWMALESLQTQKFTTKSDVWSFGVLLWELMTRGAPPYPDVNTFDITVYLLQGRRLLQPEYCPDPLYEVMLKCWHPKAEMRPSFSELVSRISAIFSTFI
row,SMILES,IC50 [nM]
1,CC(O)c1cccc(Nc2nccc(-c3ccc(S(=O)(=O)N(C)C)s3)n2)c1 (stereo not shown),1000 to 5000
2,C[C@@H](NC(=O)c1ccc(-c2ccnc(Nc3cccc(CN4CCN(CCO)CC4)c3)n2)s1)c1ccccc1,< 1000
3,C[C@@H](NC(=O)c1ccc(-c2ccnc(Nc3cccc(CN4CCC(O)CC4)c3)n2)s1)c1ccccc1,< 1000
4,CCN(CCC#N)S(=O)(=O)c1ccc(-c2ccnc(Nc3cccc(C(C)O)c3)n2)s1 (stereo not shown),< 1000
5,CC(O)c1cccc(Nc2nccc(-c3ccc(S(=O)(=O)Cc4ccccc4)s3)n2)c1 (stereo not shown),< 1000
6,COc1ccc(Nc2nccc(-c3ccc(Br)s3)n2)cc1OC,1000 to 5000
7,COc1ccc(Nc2nccc(-c3ccc(Br)s3)n2)cc1C(=O)N(C)C,1000 to 5000
8,CCC(=O)Nc1ccc(-c2ccnc(Nc3cccc(C)c3)n2)s1,1000 to 5000
9,CC(O)c1cccc(Nc2nccc(-c3ccc(-c4cccnc4)s3)n2)c1 (stereo not shown),1000 to 5000
10,O=C(c1cccc(Nc2nccc(-c3ccc(Br)s3)n2)c1)N1CCN(CCO)CC1,1000 to 5000
11,CCC1CCCCN1S(=O)(=O)c1ccc(-c2ccnc(Nc3cccc(C(C)O)c3)n2)s1 (stereo not shown),< 1000

# The remaining lines, values ahead:
row,IC50 [nM],SMILES
1,< 1000,CCN(CCC#N)S(=O)(=O)c1ccc(-c2ccnc(Nc3cccc(C)c3)n2)s1
2,1000 to 5000,O=C(NCc1ccccc1)c1ccc(-c2ccnc(Nc3ccc(CCO)cc3)n2)s1
3,1000 to 5000,Brc1ccc(-c2ccnc(Nc3cccc(CN4CCOCC4)c3)n2)s1
4,1000 to 5000,OC1CCN(Cc2cccc(Nc3nccc(-c4ccc(CNc5ccccc5Cl)s4)n3)c2)CC1
5,1000 to 5000,CN(C)C(=O)c1cccc(Nc2nccc(-c3ccc(Br)s3)n2)c1
